Legend:
Assay in all cases: Kinome-wide inhibition profiling
Type in all cases: biochemical
[1] = biological target: T1, BRK (Homo sapiens, UniProt Q13882)
T1 construct: purchased Reaction Biology Corp
Method: (§1) In vitro CDK12/cyclinK assays for all compounds and in vitro kinome-wide inhibition profiling of 30d at 10 μM were performed by a CRO company (Reaction Biology Corp., San Diego, CA, USA).

[2] = biological target: T2, RIPK4 (Homo sapiens, UniProt P57078)
T2 construct: purchased Reaction Biology Corp
Method: as §1

[3] = biological target: T3, LYN (Homo sapiens, UniProt P07948)
T3 construct: purchased Reaction Biology Corp
Method: as §1

[4] = biological target: T4, PLK2 (Homo sapiens, UniProt Q9NYY3)
T4 construct: purchased Reaction Biology Corp
Method: as §1

[5] = biological target: T5, ULK3 (Homo sapiens, UniProt Q6PHR2)
T5 construct: purchased Reaction Biology Corp
Method: as §1

[6] = biological target: T6, CLK3 (Homo sapiens, UniProt P49761)
T6 construct: purchased Reaction Biology Corp
Method: as §1

[7] = biological target: T7, ERN2 (Homo sapiens, UniProt Q76MJ5)
T7 construct: purchased Reaction Biology Corp
Method: as §1

[8] = biological target: T8, MKK6 (Homo sapiens, UniProt P52564)
T8 construct: purchased Reaction Biology Corp
Method: as §1

[9] = biological target: T9, MYLK4 (Homo sapiens, UniProt Q86YV6)
T9 construct: purchased Reaction Biology Corp
Method: as §1

[10] = biological target: T10, BTK (Homo sapiens, UniProt Q06187)
T10 construct: purchased Reaction Biology Corp
Method: as §1

[11] = biological target: T11, MAPKAPK5 (Homo sapiens, UniProt Q8IW41)
T11 construct: purchased Reaction Biology Corp
Method: as §1

[12] = biological target: T12, TGFBR2 (Homo sapiens, UniProt P37173)
T12 construct: purchased Reaction Biology Corp
Method: as §1

[13] = biological target: T13, FES (Homo sapiens, UniProt P07332)
T13 construct: purchased Reaction Biology Corp
Method: as §1

[14] = biological target: T14, FLT1 (Homo sapiens, UniProt P17948)
T14 construct: purchased Reaction Biology Corp
Method: as §1

[15] = biological target: T15, FGFR3 (Homo sapiens, UniProt P22607)
T15 construct: purchased Reaction Biology Corp
Method: as §1

[16] = biological target: T16, TXK (Homo sapiens, UniProt P42681)
T16 construct: purchased Reaction Biology Corp
Method: as §1

[17] = biological target: T17, SLK (Homo sapiens, UniProt Q9H2G2)
T17 construct: purchased Reaction Biology Corp
Method: as §1

[18] = biological target: T18, CDK3/cyclinE (Homo sapiens, UniProt Q00526)
T18 construct: purchased Reaction Biology Corp
Method: as §1

[19] = biological target: T19, MAP4K4 (Homo sapiens, UniProt O95819)
T19 construct: purchased Reaction Biology Corp
Method: as §1

[20] = biological target: T20, HIPK2 (Homo sapiens, UniProt Q9H2X6)
T20 construct: purchased Reaction Biology Corp
Method: as §1

[21] = biological target: T21, SGK3 (Homo sapiens, UniProt Q96BR1)
T21 construct: purchased Reaction Biology Corp
Method: as §1

[22] = biological target: T22, ARK5 (Homo sapiens, UniProt O60285)
T22 construct: purchased Reaction Biology Corp
Method: as §1

[23] = biological target: T23, SNRK (Homo sapiens, UniProt Q9NRH2)
T23 construct: purchased Reaction Biology Corp
Method: as §1

[24] = biological target: T24, DDR1 (Homo sapiens, UniProt Q08345)
T24 construct: purchased Reaction Biology Corp
Method: as §1

[25] = biological target: T25, MARK3 (Homo sapiens, UniProt P27448)
T25 construct: purchased Reaction Biology Corp
Method: as §1

[26] = biological target: T26, CAMK1d (Homo sapiens, UniProt Q8IU85)
T26 construct: purchased Reaction Biology Corp
Method: as §1

[27] = biological target: T27, MST1 (Homo sapiens, UniProt Q13043)
T27 construct: purchased Reaction Biology Corp
Method: as §1

[28] = biological target: T28, MLCK (Homo sapiens, UniProt Q15746)
T28 construct: purchased Reaction Biology Corp
Method: as §1

[29] = biological target: T29, MRCKa (Homo sapiens, UniProt Q5VT25)
T29 construct: purchased Reaction Biology Corp
Method: as §1

[30] = biological target: T30, PIM3 (Homo sapiens, UniProt Q86V86)
T30 construct: purchased Reaction Biology Corp
Method: as §1

[31] = biological target: T31, GRK2 (Homo sapiens, UniProt P25098)
T31 construct: purchased Reaction Biology Corp
Method: as §1

[32] = biological target: T32, PLK4 (Homo sapiens, UniProt O00444)
T32 construct: purchased Reaction Biology Corp
Method: as §1

[33] = biological target: T33, CDK2/cyclinA (Homo sapiens, UniProt P24941)
T33 construct: purchased Reaction Biology Corp
Method: as §1

[34] = biological target: T34, EPHA4 (Homo sapiens, UniProt P54764)
T34 construct: purchased Reaction Biology Corp
Method: as §1

[35] = biological target: T35, ZAK (Homo sapiens, UniProt Q9NYL2)
T35 construct: purchased Reaction Biology Corp
Method: as §1

[36] = biological target: T36, CAMKK2 (Homo sapiens, UniProt Q96RR4)
T36 construct: purchased Reaction Biology Corp
Method: as §1

[37] = biological target: T37, WNK2 (Homo sapiens, UniProt Q9Y3S1)
T37 construct: purchased Reaction Biology Corp
Method: as §1

[38] = biological target: T38, NEK9 (Homo sapiens, UniProt Q8TD19)
T38 construct: purchased Reaction Biology Corp
Method: as §1

[39] = biological target: T39, FGR (Homo sapiens, UniProt P09769)
T39 construct: purchased Reaction Biology Corp
Method: as §1

[40] = biological target: T40, BRSK2 (Homo sapiens, UniProt Q8IWQ3)
T40 construct: purchased Reaction Biology Corp
Method: as §1

[41] = biological target: T41, EGFR (Homo sapiens, UniProt P00533)
T41 construct: purchased Reaction Biology Corp
Method: as §1

[42] = biological target: T42, ULK2 (Homo sapiens, UniProt Q8IYT8)
T42 construct: purchased Reaction Biology Corp
Method: as §1

[43] = biological target: T43, NEK7 (Homo sapiens, UniProt Q8TDX7)
T43 construct: purchased Reaction Biology Corp
Method: as §1

T18 sequence (Q00526 whole entry): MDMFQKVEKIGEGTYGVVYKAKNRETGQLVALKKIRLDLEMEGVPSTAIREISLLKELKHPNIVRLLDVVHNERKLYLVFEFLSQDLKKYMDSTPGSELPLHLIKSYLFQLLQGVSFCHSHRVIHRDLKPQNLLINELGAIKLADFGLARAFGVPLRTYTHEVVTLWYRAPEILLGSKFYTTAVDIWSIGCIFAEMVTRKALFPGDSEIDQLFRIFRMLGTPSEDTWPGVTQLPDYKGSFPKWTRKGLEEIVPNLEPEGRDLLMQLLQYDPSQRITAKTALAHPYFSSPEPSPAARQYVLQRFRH
T18 sequence (P24864 whole entry partner): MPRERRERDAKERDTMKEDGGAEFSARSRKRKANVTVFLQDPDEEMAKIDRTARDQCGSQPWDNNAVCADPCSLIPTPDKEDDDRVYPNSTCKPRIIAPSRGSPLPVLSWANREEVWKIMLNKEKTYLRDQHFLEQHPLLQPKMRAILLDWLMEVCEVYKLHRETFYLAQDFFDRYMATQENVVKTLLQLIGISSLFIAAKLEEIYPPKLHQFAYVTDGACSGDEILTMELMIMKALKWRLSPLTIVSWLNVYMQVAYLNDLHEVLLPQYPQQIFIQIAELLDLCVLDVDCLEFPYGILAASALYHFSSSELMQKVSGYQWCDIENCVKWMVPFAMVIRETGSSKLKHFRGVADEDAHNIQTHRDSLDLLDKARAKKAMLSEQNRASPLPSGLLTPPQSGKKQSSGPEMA
T34 sequence (P54764 20-986): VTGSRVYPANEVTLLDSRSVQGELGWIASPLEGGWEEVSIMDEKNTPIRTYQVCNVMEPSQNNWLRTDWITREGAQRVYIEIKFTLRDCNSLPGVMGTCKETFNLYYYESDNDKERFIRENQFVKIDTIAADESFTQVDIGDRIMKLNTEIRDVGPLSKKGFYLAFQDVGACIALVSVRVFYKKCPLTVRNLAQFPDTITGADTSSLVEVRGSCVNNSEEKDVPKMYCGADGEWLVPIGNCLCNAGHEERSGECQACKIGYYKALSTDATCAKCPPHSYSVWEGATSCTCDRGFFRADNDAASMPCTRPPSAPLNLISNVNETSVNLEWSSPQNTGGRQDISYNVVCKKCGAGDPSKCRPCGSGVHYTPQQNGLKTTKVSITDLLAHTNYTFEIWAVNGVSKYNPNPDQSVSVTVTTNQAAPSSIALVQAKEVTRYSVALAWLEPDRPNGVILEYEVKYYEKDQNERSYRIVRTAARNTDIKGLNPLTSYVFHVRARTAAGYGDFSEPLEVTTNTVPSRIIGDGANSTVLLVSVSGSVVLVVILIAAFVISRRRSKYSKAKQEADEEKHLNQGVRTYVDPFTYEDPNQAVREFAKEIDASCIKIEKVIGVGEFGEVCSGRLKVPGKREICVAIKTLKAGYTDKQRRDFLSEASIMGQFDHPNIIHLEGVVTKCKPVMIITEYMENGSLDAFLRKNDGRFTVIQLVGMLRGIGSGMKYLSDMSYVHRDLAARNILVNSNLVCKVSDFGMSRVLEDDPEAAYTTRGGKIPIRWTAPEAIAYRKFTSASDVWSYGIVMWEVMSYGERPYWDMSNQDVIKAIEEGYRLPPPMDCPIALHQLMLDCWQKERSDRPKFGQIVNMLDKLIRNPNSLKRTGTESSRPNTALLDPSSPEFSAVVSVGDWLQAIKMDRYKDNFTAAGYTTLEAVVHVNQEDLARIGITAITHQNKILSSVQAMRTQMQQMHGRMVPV
T9 sequence (Q86YV6 whole entry): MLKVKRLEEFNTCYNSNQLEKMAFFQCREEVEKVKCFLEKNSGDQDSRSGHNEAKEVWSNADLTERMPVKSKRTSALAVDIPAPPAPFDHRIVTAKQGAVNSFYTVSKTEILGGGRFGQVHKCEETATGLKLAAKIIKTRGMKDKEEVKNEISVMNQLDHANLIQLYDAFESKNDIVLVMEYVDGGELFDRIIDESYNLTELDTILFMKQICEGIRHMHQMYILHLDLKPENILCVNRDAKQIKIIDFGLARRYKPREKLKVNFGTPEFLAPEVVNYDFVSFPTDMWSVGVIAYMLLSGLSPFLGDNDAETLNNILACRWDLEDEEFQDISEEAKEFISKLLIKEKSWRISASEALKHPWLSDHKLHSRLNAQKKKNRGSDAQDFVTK
T14 sequence (P17948 27-1338): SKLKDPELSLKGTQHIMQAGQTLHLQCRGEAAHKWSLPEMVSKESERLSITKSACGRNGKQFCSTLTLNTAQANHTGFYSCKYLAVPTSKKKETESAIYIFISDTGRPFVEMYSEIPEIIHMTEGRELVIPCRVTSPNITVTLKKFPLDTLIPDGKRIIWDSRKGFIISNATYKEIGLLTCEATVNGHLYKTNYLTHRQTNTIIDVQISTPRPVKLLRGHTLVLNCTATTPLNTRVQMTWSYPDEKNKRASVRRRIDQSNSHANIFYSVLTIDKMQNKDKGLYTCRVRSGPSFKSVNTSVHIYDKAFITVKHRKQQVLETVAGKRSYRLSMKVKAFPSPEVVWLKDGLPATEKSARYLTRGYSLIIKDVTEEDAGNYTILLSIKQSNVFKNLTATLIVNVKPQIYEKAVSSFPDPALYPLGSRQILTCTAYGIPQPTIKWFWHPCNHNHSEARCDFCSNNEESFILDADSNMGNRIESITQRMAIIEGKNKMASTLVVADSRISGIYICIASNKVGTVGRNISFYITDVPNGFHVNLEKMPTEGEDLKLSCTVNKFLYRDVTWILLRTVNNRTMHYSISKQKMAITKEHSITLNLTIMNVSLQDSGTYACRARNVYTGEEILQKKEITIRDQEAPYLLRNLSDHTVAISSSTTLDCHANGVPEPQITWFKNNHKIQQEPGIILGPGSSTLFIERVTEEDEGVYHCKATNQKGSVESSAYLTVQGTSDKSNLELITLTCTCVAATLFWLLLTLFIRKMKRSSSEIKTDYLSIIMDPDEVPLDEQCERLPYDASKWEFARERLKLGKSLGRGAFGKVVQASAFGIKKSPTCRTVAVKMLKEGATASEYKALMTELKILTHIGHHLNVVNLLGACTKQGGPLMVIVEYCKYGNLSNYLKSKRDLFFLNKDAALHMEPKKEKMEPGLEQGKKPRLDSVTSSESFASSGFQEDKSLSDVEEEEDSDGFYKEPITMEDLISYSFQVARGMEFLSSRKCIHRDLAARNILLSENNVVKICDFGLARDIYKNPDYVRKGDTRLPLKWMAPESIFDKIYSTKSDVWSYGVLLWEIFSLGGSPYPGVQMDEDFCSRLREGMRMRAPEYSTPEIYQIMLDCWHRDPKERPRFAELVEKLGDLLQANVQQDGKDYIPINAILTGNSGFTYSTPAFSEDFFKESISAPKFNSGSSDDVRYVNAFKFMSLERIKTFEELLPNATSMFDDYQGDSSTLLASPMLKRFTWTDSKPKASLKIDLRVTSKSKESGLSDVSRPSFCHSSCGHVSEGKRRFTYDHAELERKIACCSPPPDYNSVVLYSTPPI
T17 sequence (Q9H2G2 whole entry): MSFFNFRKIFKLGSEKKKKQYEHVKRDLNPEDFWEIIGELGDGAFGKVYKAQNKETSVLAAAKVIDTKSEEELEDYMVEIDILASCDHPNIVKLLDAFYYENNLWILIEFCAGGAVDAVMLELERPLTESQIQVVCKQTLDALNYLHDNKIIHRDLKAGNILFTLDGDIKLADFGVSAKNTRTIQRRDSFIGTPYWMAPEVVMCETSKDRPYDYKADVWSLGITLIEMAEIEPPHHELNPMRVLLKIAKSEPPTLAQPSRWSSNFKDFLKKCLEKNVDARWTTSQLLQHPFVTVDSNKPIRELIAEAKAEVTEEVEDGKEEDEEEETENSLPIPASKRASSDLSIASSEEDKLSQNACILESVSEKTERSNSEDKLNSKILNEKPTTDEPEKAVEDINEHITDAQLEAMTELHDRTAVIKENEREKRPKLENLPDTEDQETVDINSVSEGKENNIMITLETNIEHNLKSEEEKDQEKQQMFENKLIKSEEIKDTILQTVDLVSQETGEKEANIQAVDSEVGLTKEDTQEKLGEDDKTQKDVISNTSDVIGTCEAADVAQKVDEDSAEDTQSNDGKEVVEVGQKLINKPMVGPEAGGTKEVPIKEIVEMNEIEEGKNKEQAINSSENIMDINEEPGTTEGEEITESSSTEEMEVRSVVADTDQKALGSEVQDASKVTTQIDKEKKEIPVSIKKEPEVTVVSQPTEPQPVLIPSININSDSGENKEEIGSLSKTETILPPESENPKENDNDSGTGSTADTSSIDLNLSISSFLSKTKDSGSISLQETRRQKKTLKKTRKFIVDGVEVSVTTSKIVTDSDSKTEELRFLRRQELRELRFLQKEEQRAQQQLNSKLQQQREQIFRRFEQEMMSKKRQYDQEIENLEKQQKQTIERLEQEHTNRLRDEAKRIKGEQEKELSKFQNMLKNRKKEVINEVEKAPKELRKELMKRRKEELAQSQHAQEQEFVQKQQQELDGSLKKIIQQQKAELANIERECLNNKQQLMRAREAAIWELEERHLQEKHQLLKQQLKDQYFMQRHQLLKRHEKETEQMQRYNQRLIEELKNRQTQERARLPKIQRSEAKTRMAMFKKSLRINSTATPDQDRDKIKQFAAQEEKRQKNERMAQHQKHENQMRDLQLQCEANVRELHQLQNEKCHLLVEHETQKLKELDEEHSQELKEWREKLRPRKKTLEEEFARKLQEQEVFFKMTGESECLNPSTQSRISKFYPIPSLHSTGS
T43 sequence (Q8TDX7 whole entry): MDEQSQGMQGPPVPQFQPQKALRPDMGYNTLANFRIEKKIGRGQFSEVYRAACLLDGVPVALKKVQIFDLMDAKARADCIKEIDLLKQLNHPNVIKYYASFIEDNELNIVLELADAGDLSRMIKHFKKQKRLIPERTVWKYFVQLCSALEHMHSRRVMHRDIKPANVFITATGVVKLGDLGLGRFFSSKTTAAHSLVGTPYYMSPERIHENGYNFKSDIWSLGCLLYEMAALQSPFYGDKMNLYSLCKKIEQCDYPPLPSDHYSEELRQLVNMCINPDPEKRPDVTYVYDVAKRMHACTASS

Work on CCn1cnc2c(NCc3ccc(-c4ccccn4)nc3)nc(-c3ccc(N)nc3)nc21 [Compound 30d, N-([2,2′-Bipyridin]-5-ylmethyl)-2-(6-aminopyridin-3-yl)-9-ethyl-9H-purin-6-amine] yielded a remaining activity at 10 µM [1] of 46.6%, a remaining activity at 10 µM [2] of 97.8% and a remaining activity at 10 µM [3] of 65.7%. The remaining activity at 10 µM [4] was 107%, the remaining activity at 10 µM [5] was 91.8% and the remaining activity at 10 µM [6] was 94.6%. The remaining activity at 10 µM [7] was 65.4%, the remaining activity at 10 µM [8] was 95.4% and the inhibition at 10 µM [9] was over 95%. For the same compound, the remaining activity at 10 µM [9] was 4.1%, the remaining activity at 10 µM [10] was 103% and the remaining activity at 10 µM [11] was 103%. The remaining activity at 10 µM [12] was 94.5%, the remaining activity at 10 µM [13] was 6.4% and the remaining activity at 10 µM [14] was 36.3%. For the same compound, the remaining activity at 10 µM [15] was 30.6%, the remaining activity at 10 µM [16] was 34.9% and the remaining activity at 10 µM [17] was 69.5%. It also gave an inhibition at 10 µM [18] of over 95%, a remaining activity at 10 µM [18] of 1% and a remaining activity at 10 µM [19] of 103%. It also gave a remaining activity at 10 µM [20] of 81.3%, a remaining activity at 10 µM [21] of 92.6% and a remaining activity at 10 µM [22] of 20.8%. The remaining activity at 10 µM [23] was 93%, the remaining activity at 10 µM [24] was 50.2% and the remaining activity at 10 µM [25] was 83.1%. For the same compound, the remaining activity at 10 µM [26] was 58%, the remaining activity at 10 µM [27] was 62.2% and the remaining activity at 10 µM [28] was 63.4%. It also gave a remaining activity at 10 µM [29] of 96.6%, a remaining activity at 10 µM [30] of 86.7% and a remaining activity at 10 µM [31] of 99.1%. The remaining activity at 10 µM [32] was 83.4%, the inhibition at 10 µM [33] was over 95% and the remaining activity at 10 µM [33] was 1.2%. The inhibition at 10 µM [34] was over 95%, the remaining activity at 10 µM [34] was 3.6% and the remaining activity at 10 µM [35] was 97.5%. The remaining activity at 10 µM [36] was 10.6%, the remaining activity at 10 µM [37] was 108% and the remaining activity at 10 µM [38] was 90%. For the same compound, the remaining activity at 10 µM [39] was 54.6%, the remaining activity at 10 µM [40] was 97.5% and the remaining activity at 10 µM [41] was 83.7%. It also gave a remaining activity at 10 µM [42] of 87.3% and a remaining activity at 10 µM [43] of 93.2%.

Source: paper PMC9506414, “Novel 2,6,9-Trisubstituted Purines as Potent CDK Inhibitors Alleviating Trastuzumab-Resistance of HER2-Positive Breast Cancers” (Pharmaceuticals, 2022)
